Earlier results as cited in PubChem BioAssay AID1259409 (Chemical Carcinogenesis Research Information System (CCRIS), 2018).
Values joined by “and” are separate entries in the source; they are usually repeats but may differ in a detail not shown here. Equal values may be shown once.

System: rodent chemically induced tumor inhibition, incidence and multiplicity
Experiment: CCRIS tumor inhibitor studies
Conditions: Promoter: NONE USED

Question: Which “tumour outcome (control, treated, inhibition, significance)” value (Carcinogen: 1,2-DIMETHYLHYDRAZINE, 540-73-8, Dose [Inhibitor]: 0, 500 MG/KG BW IN CORN OIL 5 D/WK FOR 20 WK BEGINNING 2 HR POST FIRST CARCINOGEN DOSE (STUDY DURATION: 18 MO), Route [Inhibitor]: GAVAGE, Species: RAT, Strain/Sex: WISTAR/MALE, Target Tissue: Type of Lesion: INTESTINE: TUMOR, Dose [Carcinogen]: 20 MG/KG BW 1/WK FOR 20 WK) does the source give for CCN(CC)C(=S)SSC(=S)N(CC)CC here?
Answer: 100%, 58%, 42%, not calculated

Question: What about the “tumour outcome (control, treated, inhibition, significance)” value (Carcinogen: 1,2-DIMETHYLHYDRAZINE, 540-73-8, Dose [Inhibitor]: 0, 500 MG/KG BW IN CORN OIL 5 D/WK FOR 20 WK BEGINNING 2 HR POST FIRST CARCINOGEN DOSE (STUDY DURATION: 18 MO), Route [Inhibitor]: GAVAGE, Species: RAT, Strain/Sex: WISTAR/MALE, Target Tissue: Type of Lesion: ZYMBAL GLAND: TUMOR, Dose [Carcinogen]: 20 MG/KG BW 1/WK FOR 20 WK) of the same compound?
Answer: 52%, 4%, 92%, not calculated

Question: And the “tumour outcome (control, treated, inhibition, significance)” value (Carcinogen: 1,2-DIMETHYLHYDRAZINE, 540-73-8, Dose [Inhibitor]: 0, 500 MG/KG BW IN CORN OIL 5 D/WK FOR 20 WK BEGINNING 15 D PRIOR TO CARCINOGEN TREATMENT (STUDY DURATION: 18 MO), Route [Inhibitor]: GAVAGE, Species: RAT, Strain/Sex: WISTAR/MALE, Target Tissue: Type of Lesion: INTESTINE: TUMOR, Dose [Carcinogen]: 20 MG/KG BW 1/WK FOR 20 WK)?
Answer: 100%, 0%, 100%, not calculated

Question: And the “tumour outcome (control, treated, inhibition, significance)” value (Carcinogen: 1,2-DIMETHYLHYDRAZINE, 540-73-8, Dose [Inhibitor]: 0, 500 MG/KG BW IN CORN OIL 5 D/WK FOR 20 WK BEGINNING 15 D PRIOR TO CARCINOGEN TREATMENT (STUDY DURATION: 18 MO), Route [Inhibitor]: GAVAGE, Species: RAT, Strain/Sex: WISTAR/MALE, Target Tissue: Type of Lesion: ZYMBAL GLAND: TUMOR, Dose [Carcinogen]: 20 MG/KG BW 1/WK FOR 20 WK)?
Answer: 68%, 0%, 100%, not calculated

Question: What about the “tumour outcome (control, treated, inhibition, significance)” value (Carcinogen: 1,2-DIMETHYLHYDRAZINE, 540-73-8, Dose [Inhibitor]: 5 MG/G IN DIET FOR 17 WK BEGINNING 8 D PRIOR TO CARCINOGEN (STUDY DURATION: 36 WK), Route [Inhibitor]: ORAL, Species: MOUSE, Strain/Sex: C-F1/FEMALE, Target Tissue: Type of Lesion: LARGE INTESTINE: TUMOR, Dose [Carcinogen]: 0.7 MG IN 0.2 ML EDTA SOLUTION 1/WK FOR 16 WK) of the same compound?
Answer: 14/14 (100%), 0/20 (0%), 100%, not calculated

Question: And the “tumour outcome (control, treated, inhibition, significance)” value (Carcinogen: 7,12-DIMETHYLBENZ[A]ANTHRACENE, 57-97-6, Dose [Inhibitor]: 0.03 NMOL/G DIET DAILY FOR 17 WK STARTING 1 WK PRIOR TO CARCINOGEN TREATMENT AND CONTINUING THROUGH THE END OF THE STUDY, Route [Inhibitor]: ORAL, Species: RAT, Strain/Sex: SPRAGUE-DAWLEY/FEMALE, Target Tissue: Type of Lesion: MAMMARY GLAND: TUMOR, Dose [Carcinogen]: 12 MG IN 1 ML OLIVE OIL ONCE)?
Answer: 61%, 22%, 64%, p<0.05 and 79%, 8%, 90%, p<0.001

Question: And the “tumour outcome (control, treated, inhibition, significance)” value (Carcinogen: 7,12-DIMETHYLBENZ[A]ANTHRACENE, 57-97-6, Dose [Inhibitor]: 100 MG IN 1 ML CARBOWAX 400 SOLUTION ONCE 24 HR BEFORE CARCINOGEN TREATMENT FOLLOWED BY 16 WK OBSERVATION PERIOD (STUDY, Route [Inhibitor]: GAVAGE, Species: RAT, Strain/Sex: SPRAGUE-DAWLEY/FEMALE, Target Tissue: Type of Lesion: MAMMARY GLAND: TUMOR, Dose [Carcinogen]: 12 MG IN 1 ML OLIVE OIL ONCE)?
Answer: 59%, 11%, 81%, p<0.01

Question: What about the “tumour outcome (control, treated, inhibition, significance)” value (Carcinogen: BENZO[A]PYENE, 50-32-8, Dose [Inhibitor]: 0.03 MMOL/G DIET DAILY FOR 6 WK CONCURRENT WITH CARCINOGEN TREATMENT FOLLOWED BY 14 WK ON STANDARD DIET (STUDY DURATION:, Route [Inhibitor]: ORAL, Species: MOUSE, Strain/Sex: ICR/FEMALE, Target Tissue: Type of Lesion: FORESTOMACH: NEOPLASM, Dose [Carcinogen]: 0.3 MG/G IN DIET DAILY FOR 6 WK) of the same compound?
Answer: 40%, 0%, 100%, not calculated

Question: And the “tumour outcome (control, treated, inhibition, significance)” value (Carcinogen: BENZO[A]PYENE, 50-32-8, Dose [Inhibitor]: 0.03 MMOL/G DIET DAILY FOR 25 D STARTING 7 D PRIOR TO FIRST CARCINOGEN DOSE AND THEN PLACED ON STANDARD DIET THROUGH THE, Route [Inhibitor]: ORAL, Species: MOUSE, Strain/Sex: STRAIN-A/FEMALE, Target Tissue: Type of Lesion: LUNG: ADENOMA, Dose [Carcinogen]: 3 MG IN 0.5 ML SESAME OIL ADMINISTERED 7 AND 21 D AFTER START OF AGENT)?
Answer: 12/12 (100%), 12/12 (100%), 0%, not significant

Question: And the “tumour outcome (control, treated, inhibition, significance)” value (Carcinogen: BRACKEN FERN, Dose [Inhibitor]: 5 MG/G DIET, DAILY FOR 12 MO SIMULTANEOUS WITH CARCINOGEN (STUDY DURATION: 12 MO), Route [Inhibitor]: ORAL, Species: RAT, Strain/Sex: ALBINO/?, Target Tissue: Type of Lesion: INTESTINE: TUMOR, Dose [Carcinogen]: 0.33 G IN DIET DAILY FOR 12 MO)?
Answer: 30/30 (100%), 12/16 (75%), 25%, p<0.01

Question: And the “tumour outcome (control, treated, inhibition, significance)” value (Carcinogen: BRACKEN FERN, Dose [Inhibitor]: 5 MG/G DIET, DAILY FOR 12 MO SIMULTANEOUS WITH CARCINOGEN (STUDY DURATION: 12 MO), Route [Inhibitor]: ORAL, Species: RAT, Strain/Sex: ALBINO/?, Target Tissue: Type of Lesion: URINARY BLADDER: TUMOR, Dose [Carcinogen]: 0.33 G IN DIET, DAILY FOR 12 MO)?
Answer: 22/30 (73%), 10/16 (62%), 15%, not significant

Question: What about the “tumour outcome (control, treated, inhibition, significance)” value (Carcinogen: TRANS-5-AMINO-3-[2-(5-NITRO-2-FURYL)VINYL]-1,2,4-OXADIAZOLE;SQL8506, 28754-68-9, Carcinogen: TRANS-5-AMINO-3-[2-(5-NITRO-2-FURYL)VINYL]-1,2,4-OXADIAZOLE;SQL8506, 28754-68-9, Dose [Inhibitor]: 1% IN DIET DAILY FOR 11 D BEGINNING 3 D BEFORE, DURING AND 3 D AFTER EACH OF 3 CARCINOGEN TREATMENTS (STUDY DURATION: LI, Route [Inhibitor]: ORAL, Species: MOUSE, Strain/Sex: CD-1/FEMALE, Target Tissue: Type of Lesion: HEMATOPOIETIC SYSTEM: MYELOID LEUKEMIA, Dose [Carcinogen]: 1 G/KG 2/D FOR 5 D EVERY 4 WK FOR 3 COURSES OF TREATMENT) of the same compound?
Answer: 7/137 (5%), 0/34 (0%), 100%, not calculated

Question: What about the “tumour outcome (control, treated, inhibition, significance)” value (Carcinogen: TRANS-5-AMINO-3-[2-(5-NITRO-2-FURYL)VINYL]-1,2,4-OXADIAZOLE;SQL8506, 28754-68-9, Carcinogen: TRANS-5-AMINO-3-[2-(5-NITRO-2-FURYL)VINYL]-1,2,4-OXADIAZOLE;SQL8506, 28754-68-9, Dose [Inhibitor]: 1% IN DIET DAILY FOR 11 D BEGINNING 3 D BEFORE, DURING AND 3 D AFTER EACH OF 3 CARCINOGEN TREATMENTS (STUDY DURATION: LI, Route [Inhibitor]: ORAL, Species: MOUSE, Strain/Sex: CD-1/FEMALE, Target Tissue: Type of Lesion: LYMPHOID TISSUE: NONTHYMIC LYMPHOMA, Dose [Carcinogen]: 1 G/KG 2/D FOR 5 D EVERY 4 WK FOR 3 COURSES OF TREATMENT) of the same compound?
Answer: 8/137 (6%), 0/34 (0%), 100%, not calculated

Question: What about the “tumour outcome (control, treated, inhibition, significance)” value (Carcinogen: TRANS-5-AMINO-3-[2-(5-NITRO-2-FURYL)VINYL]-1,2,4-OXADIAZOLE;SQL8506, 28754-68-9, Carcinogen: TRANS-5-AMINO-3-[2-(5-NITRO-2-FURYL)VINYL]-1,2,4-OXADIAZOLE;SQL8506, 28754-68-9, Dose [Inhibitor]: 1% IN DIET DAILY FOR 11 D BEGINNING 3 D BEFORE, DURING AND 3 D AFTER TREATMENT EACH OF 3 CARCINOGEN TREATMENTS (STUDY DU, Route [Inhibitor]: ORAL, Species: MOUSE, Strain/Sex: CD-1/FEMALE, Target Tissue: Type of Lesion: STOMACH: SQUAMOUS CARCINOMA, Dose [Carcinogen]: 1 G/KG 2/D FOR 5 D EVERY 4 WK FOR 3 COURSES OF TREATMENT) of the same compound?
Answer: 60/137 (44%), 12/34 (35%), 20%, not calculated

Question: What about the “tumour outcome (control, treated, inhibition, significance)” value (Carcinogen: URETHANE, 51-79-6, Dose [Inhibitor]: 0, 500 MG/KG IN CORN OIL AT 24 HR AND 1 HR PRIOR TO CARCINOGEN DOSE (STUDY DURATION: 4 MO), Route [Inhibitor]: GAVAGE, Species: MOUSE, Strain/Sex: BALB/MALE, FEMALE, Target Tissue: Type of Lesion: LUNG: TUMOR, Dose [Carcinogen]: 1 G/KG IN 0.9% SALINE ONCE) of the same compound?
Answer: 100%, 63%, 37%, not significant

Question: And the “tumour outcome (control, treated, inhibition, significance)” value (Carcinogen: URETHANE, 51-79-6, Dose [Inhibitor]: 0, 500 MG/KG IN CORN OIL FOR 4 D BEGINNING 4 D POST CARCINOGEN DOSE (STUDY DURATION: 4 MO), Route [Inhibitor]: GAVAGE, Species: MOUSE, Strain/Sex: BALB/MALE, FEMALE, Target Tissue: Type of Lesion: LUNG: TUMOR, Dose [Carcinogen]: 1 G/KG IN 0.9% SALINE ONCE)?
Answer: 100%, 94%, 6%, not significant
